{"source": "ChEMBL document CHEMBL1151291", "about": "“Antiviral activity of lignans” (J Nat Prod, 1998)", "key": {"[1]": {"assay": "Therapeutic index, ratio of MTC for human primary amnion cells to lowest drug level causing inhibition of HSV1", "conditions": "read-out: TI"}, "[2]": {"tested_on": "Vesicular stomatitis virus", "assay": "Antiviral activity against VSV infected in BHK cells assessed as inhibition of plaque formation", "type": "functional, organism-based"}, "Human alphaherpesvirus 1 [3]": {"tested_on": "Human alphaherpesvirus 1", "assay": "Antiviral activity against HSV1 infected in monkey CV-1 cells assessed as inhibition of plaque formation", "type": "functional, organism-based", "conditions": "Human alphaherpesvirus 1, CV-1"}, "[4]": {"assay": "Cytotoxicity against human primary amnion cells assessed as morphological changes by microscopic examination", "type": "functional"}, "Human alphaherpesvirus 1 [5]": {"tested_on": "Human alphaherpesvirus 1", "assay": "Antiviral activity against HSV1 infected in human primary amnion cells assessed as inhibition of virus-induced pathogenic effect", "type": "functional"}, "[6]": {"tested_on": "Human immunodeficiency virus 1", "assay": "Antiviral activity against HIV1 infected in human H9 cells assessed inhibition of viral replication", "type": "functional, organism-based", "conditions": "Human immunodeficiency virus 1, H9"}, "[7]": {"assay": "Therapeutic index, ratio of inhibition of human H9 cells to EC50 for HIV1", "type": "cell-based", "conditions": "read-out: TI"}, "[8]": {"tested_on": "Human immunodeficiency virus 1", "assay": "Antiviral activity against HIV1 infected in human MT4 cells", "type": "functional, organism-based", "conditions": "Human immunodeficiency virus 1, MT4"}, "MT4": {"tested_on": "MT4", "assay": "Cytotoxicity against human MT4 cells", "type": "functional", "conditions": "read-out: CD50 (the source's name)"}, "[9]": {"tested_on": "Human immunodeficiency virus", "assay": "Antiviral activity against HIV assessed as reduction of viral protein production at 0.27 uM", "type": "functional", "design": "scale not given: the % may be the effect or the level left"}, "[10]": {"tested_on": "Human immunodeficiency virus", "assay": "Antiviral activity against HIV assessed as reduction of viral protein production at 0.52 uM", "type": "functional", "design": "scale not given: the % may be the effect or the level left"}, "[11]": {"tested_on": "Human immunodeficiency virus", "assay": "Antiviral activity against cross-resistant HIV mutant", "type": "functional", "conditions": "Human immunodeficiency virus 1; read-out: ED50 (the source's name)"}, "Sindbis virus": {"tested_on": "Sindbis virus", "assay": "Antiviral activity against Sindbis virus in mouse 3T3-L1 cells at 250 nM", "type": "functional"}, "Murid betaherpesvirus 1": {"tested_on": "Murid betaherpesvirus 1", "assay": "Antiviral activity against Murine cytomegalovirus in mouse 3T3-L1 cells at 250 nM", "type": "functional", "conditions": "Murid betaherpesvirus 1, 3T3-L1"}}, "data": [{"smiles": "COc1cc([C@@H]2c3cc4c(cc3[C@H](O)[C@H]3COC(=O)[C@H]23)OCO4)cc(OC)c1O", "values": [{"measurement": "selectivity ratio", "setting": "[1]", "result": 250}, {"measurement": "IC50", "setting": "[2]", "result": 250, "unit": "nM"}, {"measurement": "IC50", "setting": "Human alphaherpesvirus 1 [3]", "result": 100, "unit": "nM"}, {"measurement": "Activity", "setting": "[4]", "result": ">125", "unit": "µM"}, {"measurement": "Activity", "setting": "Human alphaherpesvirus 1 [5]", "result": 0.5, "unit": "µM"}]}, {"smiles": "COc1ccc(C[C@H]2COC(=O)[C@@H]2Cc2ccc(O)c(O)c2)cc1OC", "values": [{"measurement": "EC50", "setting": "[6]", "result": 420, "unit": "nM"}, {"measurement": "selectivity ratio", "setting": "[7]", "result": 9}]}, {"smiles": "COc1cc([C@@H]2c3cc4c(c(O[C@@H]5O[C@H](CO)[C@@H](O)[C@H](O)[C@H]5O)c3C[C@H]3COC(=O)[C@@H]32)OCO4)cc(OC)c1OC", "values": [{"measurement": "selectivity ratio", "setting": "[1]", "result": 3}, {"measurement": "Activity", "setting": "[4]", "result": 52, "unit": "µM"}, {"measurement": "Activity", "setting": "Human alphaherpesvirus 1 [5]", "result": 17, "unit": "µM"}]}, {"smiles": "COc1cc([C@H]2c3c(cc(OC)c(OC)c3OC)C[C@@H](C)[C@@H]2C)cc(OC)c1OC", "values": [{"measurement": "EC50", "setting": "[8]", "result": 3200, "unit": "nM"}, {"measurement": "CC50", "setting": "MT4", "result": 34000, "unit": "nM"}]}, {"smiles": "COc1cc([C@@H]2c3cc4c(cc3[C@@H](OC)[C@H]3COC(=O)[C@@H]23)OCO4)cc(OC)c1OC", "values": [{"measurement": "IC50", "setting": "[2]", "result": 2300, "unit": "nM"}, {"measurement": "IC50", "setting": "Human alphaherpesvirus 1 [3]", "result": 900, "unit": "nM"}]}, {"smiles": "COc1cc([C@@H]2c3cc4c(cc3[C@H](OC)[C@H]3COC(=O)[C@H]23)OCO4)cc(OC)c1OC", "values": [{"measurement": "IC50", "setting": "[2]", "result": 930, "unit": "nM"}, {"measurement": "IC50", "setting": "Human alphaherpesvirus 1 [3]", "result": 460, "unit": "nM"}]}, {"smiles": "COc1cc([C@@H]2c3cc4c(c(OC)c3C[C@H]3COC(=O)[C@@H]32)OCO4)cc(OC)c1OC", "values": [{"measurement": "IC50", "setting": "[2]", "result": 23, "unit": "nM"}, {"measurement": "IC50", "setting": "Human alphaherpesvirus 1 [3]", "result": 23, "unit": "nM"}]}, {"smiles": "COc1cc([C@H]2c3c(cc(OC)c(OC)c3OC)C[C@H]3CSC[C@@H]32)cc(OC)c1OC", "values": [{"measurement": "EC50", "setting": "[8]", "result": 800, "unit": "nM"}, {"measurement": "CC50", "setting": "MT4", "result": 58000, "unit": "nM"}]}, {"smiles": "COc1cc([C@H]2c3c(cc4c(c3OC)OCO4)C[C@H]3CSC[C@@H]32)cc(OC)c1OC", "values": [{"measurement": "EC50", "setting": "[8]", "result": 5100, "unit": "nM"}, {"measurement": "CC50", "setting": "MT4", "result": 163000, "unit": "nM"}]}, {"smiles": "COc1cc([C@@H]2c3cc4c(cc3C=C3COC(=O)[C@H]32)OCO4)cc(OC)c1OC", "values": [{"measurement": "IC50", "setting": "[2]", "result": 250, "unit": "nM"}, {"measurement": "IC50", "setting": "Human alphaherpesvirus 1 [3]", "result": 250, "unit": "nM"}]}, {"smiles": "COC(=O)[C@@H]1C(CO)=Cc2cc3c(cc2[C@H]1c1cc(OC)c(OC)c(OC)c1)OCO3", "values": [{"measurement": "IC50", "setting": "[2]", "result": 460, "unit": "nM"}, {"measurement": "IC50", "setting": "Human alphaherpesvirus 1 [3]", "result": 460, "unit": "nM"}]}, {"smiles": "COc1cc(C[C@@]2(O)C(=O)OC[C@@H]2Cc2ccc(OC)c(OC)c2)ccc1O", "values": [{"measurement": "Activity", "setting": "[9]", "result": 60, "unit": "%"}, {"measurement": "Activity", "setting": "[10]", "result": 60, "unit": "%"}]}, {"smiles": "COc1cc([C@@H]2c3cc4c(cc3[C@@H](OC)[C@H]3COC(=O)[C@H]23)OCO4)cc(OC)c1OC", "values": [{"measurement": "IC50", "setting": "[2]", "result": 900, "unit": "nM"}, {"measurement": "IC50", "setting": "Human alphaherpesvirus 1 [3]", "result": 900, "unit": "nM"}]}, {"smiles": "COc1ccc([C@H]2c3c(cc4c(c3OC)OCO4)C[C@H]3CSC[C@@H]32)cc1OC", "values": [{"measurement": "EC50", "setting": "[8]", "result": 3300, "unit": "nM"}, {"measurement": "CC50", "setting": "MT4", "result": "> 840000", "unit": "nM"}]}, {"smiles": "COc1c(O)c(Br)c2c(c1OC)-c1c(c(Br)c(O)c(OC)c1OC)C[C@H](C)[C@H](C)C2", "values": [{"measurement": "EC50", "setting": "[11]", "result": 100, "unit": "nM"}]}, {"smiles": "COc1c2c(cc3c1[C@H](c1ccc(OC(=O)c4ccccc4)c(O)c1)[C@H]1C(=O)OC[C@@H]1C3)OCO2", "values": [{"measurement": "EC50", "setting": "[8]", "result": 5220, "unit": "nM"}, {"measurement": "CC50", "setting": "MT4", "result": "> 840000", "unit": "nM"}]}, {"smiles": "COc1c(O)c(Cl)c2c(c1OC)-c1c(c(Cl)c(O)c(OC)c1OC)C[C@H](C)[C@H](C)C2", "values": [{"measurement": "EC50", "setting": "[11]", "result": 100, "unit": "nM"}]}, {"smiles": "COc1cc([C@@H]2c3cc4c(c(O)c3C[C@H]3COC(=O)[C@@H]32)OCO4)cc(OC)c1O", "values": [{"measurement": "selectivity ratio", "setting": "[1]", "result": 4000}, {"measurement": "inhibition at 0.25 µM", "setting": "Sindbis virus", "result": 6, "unit": "%"}, {"measurement": "inhibition at 0.25 µM", "setting": "Murid betaherpesvirus 1", "result": 85, "unit": "%"}, {"measurement": "Activity", "setting": "[4]", "result": 200, "unit": "µM"}, {"measurement": "Activity", "setting": "Human alphaherpesvirus 1 [5]", "result": 0.05, "unit": "µM"}]}, {"smiles": "COc1cc([C@@H]2c3cc4c(cc3[C@@H](O)[C@H]3COC(=O)[C@H]23)OCO4)cc(OC)c1O", "note": "[4'-DEMETHYLEPIPODOPHYLLOTOXIN]", "values": [{"measurement": "selectivity ratio", "setting": "[1]", "result": 1}, {"measurement": "Activity", "setting": "[4]", "result": 13, "unit": "µM"}, {"measurement": "Activity", "setting": "Human alphaherpesvirus 1 [5]", "result": 13, "unit": "µM"}]}]}
